According to patent publication US12419947B2, “Inorganic polyatomic oxyanions for protecting against antigenic damage during pathogen inactivation for vaccine production” (priority 2016, dated 2025):

How the values were obtained:
[1] = system: dengue serotype 4 (DENV4); test: DENV-specific sandwich ELISA (MAbs 15A5 and 6H6) on treated DENV4; type: binding, dengue virus; conditions: for ELISA signal / antigenicity with added salt during H2O2/CuCl2 inactivation: 0.01% H2O2, 1 μM CuCl2, 20 hours, vs standard conditions; for ELISA signal with added oxyanion during formaldehyde inactivation: 0.01% formaldehyde, 20 days at 37° C.; for ELISA signal with added oxyanion during BPL inactivation: 0.1% BPL; for antigenicity (ELISA at 20 hrs post-inactivation): H2O2=0.01%, compound 10 μM
[2] = system: chikungunya virus (CHIKV); test: CHIKV-specific sandwich ELISA (retained antigenicity); type: binding
[3] = system: chikungunya virus (CHIKV); type: cell-based
[4] = system: dengue serotype 4 (DENV4); test: DENV4 live virus plaque assay on Vero cells; type: cell-based, dengue virus; conditions: for virus inactivation with added salt during H2O2/CuCl2 inactivation: 0.01% H2O2, 1 μM CuCl2, 20 hours; for rate of inactivation (viable virus at 1 hr post-inactivation): H2O2=0.01%, compound 10 μM
[5] = system: Campylobacter coli (C. coli); test: C. coli inactivation (viable bacteria over time); type: cell-based; conditions: H2O2=0.01%, MZ=20 μM, 150 mM NaPO4
vaccinia virus (VV) = type: cell-based; conditions: H2O2=0.002%, CuCl2=1 μM, MZ=10 μM, PBS pH=7.5
Listeria monocytogenes = Listeria monocytogenes inactivation (CFU/mL); type: cell-based; conditions: H2O2=0.10%, MZ=100 μM, 150 mM NaPO4
Shigella dysenteriae = Shigella dysenteriae inactivation (CFU/mL); type: cell-based; conditions: H2O2=0.10%, CuCl2=10 μM, MZ=100 μM, 150 mM NaPO4
smallpox = conditions: in vivo; cited from earlier work
vaccinia = conditions: cited from earlier work
dengue virus 3 (DENV3) = test: DENV-specific sandwich ELISA on treated DENV3; type: binding; conditions: H2O2 0.01%
DENV2 = DENV2 inactivation kinetics (PFU assay); type: cell-based, dengue virus; conditions: 3% H2O2, or 0.01% H2O2 and 1 μM CuCl2, room temperature
[6] = system: Campylobacter coli (C. coli); test: Campylobacter morphology after inactivation (Gram safranin stain); conditions: 3% H2O2 5 hours, or 0.01% H2O2 and 2 uM CuCl2
[7] = BEI, Na2HPO4 150 mM, 20 hours at 37° C.
[8] = 0.01% formaldehyde with high oxyanion, 20 days at 37° C.
[9] = 0.1% BPL with high oxyanion, 20 hours
[10] = 20 hours, room temperature, 150 mM NaPO4

For `[Cl-].[Cl-].[Mg+2]` [magnesium chloride, reference compound], the “ELISA signal / antigenicity with added salt during H2O2/CuCl2 inactivation” value ([1]; room temperature) was “no protective effect on antigenicity”.
In the case of `O=P(O)(O)O` [Na2HPO4, sodium phosphate], the “ELISA signal with added oxyanion during H2O2/CuCl2 inactivation” value ([2]; 0.01% H2O2, 5 μM CuCl2, 20 hours, 150 mM Na2HPO4 with or without 3 mM Na3P3O9) is reported as “increased ELISA signals”, the “residual live virus (co-culture, estimated LOD of 100 PFU/mL)” value [3] is reported as “completely inactivated” and the “ELISA signal / antigenicity with added salt during H2O2/CuCl2 inactivation” value ([1]; room temperature) is reported as “increased ELISA signal”. The “ELISA signal with added oxyanion during formaldehyde inactivation” value [1] was “increased ELISA signals”, the “ELISA signal with added oxyanion during BPL inactivation” value ([1]; 20 hours, room temperature) was “increased ELISA signals” and the “ELISA signal with added oxyanion during BEI inactivation” value [1, 7] was “increased ELISA signals”. The “virus inactivation with added salt during H2O2/CuCl2 inactivation” value [4] was “complete virus inactivation”, the virus inactivation [4, 8] was “completely inactivated” and the virus inactivation [4, 9] was “completely inactivated”. The “kinetics of virus inactivation in presence vs absence of high Na2HPO4” value ([4]; 150 mM vs 10 mM, 0.01% H2O2, 1 μM CuCl2) was “similar” and the virus inactivation [4, 7] was “completely inactivated”.
With `[Cl-].[Na+]` [sodium chloride, reference compound] the “ELISA signal / antigenicity with added salt during H2O2/CuCl2 inactivation” value ([1]; room temperature) was “no protective effect on antigenicity”.
With `O=C1Nc2ccccc2C1=O` [isatin] the “antigenicity (ELISA at 20 hrs post-inactivation)” value ([1]; CuCl2=1 μM, 150 mM NaPO4) was “protection of protein antigens from oxidative damage” and the “rate of inactivation (viable virus at 1 hr post-inactivation)” value ([4]; CuCl2=1 μM, 150 mM NaPO4) was “do not appear to increase the rate of inactivation”.
In the case of `CN1C(=O)/C(=N\NC(N)=S)c2ccccc21` [methisazone, N-methyl-isatin β-thiosemicarbazone], the “antigenicity on addition of methisazone to dual oxidation” value [2, 10] is reported as “maintained or significantly improved antigenicity”, the “retained antigenicity at 20 hrs with increasing methisazone relative to the transition metal” value ([2]; H2O2 0.02%, CuCl2 1 μM, 150 mM NaPO4) is reported as “improvements in both retained antigenicity” and the “increase of the rate of inactivation on addition of methisazone” value [3] is reported as 10- to 20 fold. For the same molecule, the “rate of dual-oxidation-based inactivation on addition of methisazone” value [3] was “substantially increase the rate”, the “virus inactivation (plaque assay at 1 hr) with increasing methisazone relative to the transition metal” value [3] was “increased virus inactivation rates” and the “virus inactivation by methisazone alone” value [3] was “minimal impact”. The “inactivation rate on addition of methisazone to H2O2/CuCl2” value (“inactivation rate … to H2O2/CuCl2” for short) [5] was “substantially enhanced inactivation rates”, the “antigenicity on addition of methisazone to dual oxidation” value [1, 10] was “maintained or significantly improved antigenicity” and the “antigenicity, methisazone together with polyatomic oxyanions” value ([1]; H2O2=0.002%, CuCl2=1 μM, 150 mM Na2HPO4, methisazone 10 μM, 20 hours) was “higher antigenicity than could be achieved by either approach in isolation”. For the same molecule, the “rate of dual-oxidation-based inactivation on addition of methisazone” value ([4]; H2O2=0.002%, CuCl2=1 μM, MZ=10 μM, 150 mM NaPO4) was “substantially increase the rate”, the “virus inactivation by methisazone alone” value ([4]; MZ=10 μM) was “minimal impact” and the “increase of the rate of inactivation on addition of methisazone” value ([4]; dual oxidation, 150 mM NaPO4, stated for CHIKV and DENV4 together) was 10- to 20 fold. For the same molecule, the “rate of dual-oxidation-based inactivation on addition of methisazone” value (vaccinia virus (VV)) was “substantially increase the rate”, the “inactivation rate … to H2O2/CuCl2” value (Listeria monocytogenes) was “substantially enhanced inactivation rates” and the “inactivation rate … to H2O2/CuCl2” value (Shigella dysenteriae) was “substantially enhanced inactivation rates”. For the same molecule, the “deaths among close contacts receiving methisazone” value (smallpox) was “no deaths”, the serious adverse events (vaccinia; mean initial dose 152 mg/kg, total average 809 mg/kg over 3.75 days) was “lack of serious adverse events” and the “complications of vaccinia vaccination” value (vaccinia; used prophylactically prior to vaccinia vaccination) was “reduce complications”.
In the case of `NNC(N)=S` [thiosemicarbazide], the “antigenicity (ELISA at 20 hrs post-inactivation)” value ([1]; CuCl2=1 μM, 150 mM NaPO4) is reported as “superior antigenicity” and the “rate of inactivation (viable virus at 1 hr post-inactivation)” value ([4]; CuCl2=1 μM, 150 mM NaPO4) is reported as “enhancement of inactivation”.
With `O=P([O-])([O-])OP(=O)([O-])OP(=O)([O-])[O-].[Na+].[Na+].[Na+].[Na+].[Na+]` [sodium triphosphate] the “ELISA signal / antigenicity with added salt during H2O2/CuCl2 inactivation” value ([1]; room temperature) was “increased ELISA signals” and the “virus inactivation with added salt during H2O2/CuCl2 inactivation” value [4] was “completely inactivated”.
With `O=C1CCO1` [BPL, β-propiolactone, reference compound] the ELISA signal ([1]; standard BPL conditions: 0.1% BPL, 20 hours, room temperature) was “loss of ELISA signal”.
With `O=S(=O)([O-])[O-].[Na+].[Na+]` [sodium sulfate] the “ELISA signal / antigenicity with added salt during H2O2/CuCl2 inactivation” value ([1]; room temperature) was “improved antigenicity”, the “ELISA signal with added oxyanion during formaldehyde inactivation” value [1] was “increased ELISA signals” and the “ELISA signal with added oxyanion during BPL inactivation” value ([1]; 20 hours, room temperature) was “increased ELISA signals”. The “virus inactivation with added salt during H2O2/CuCl2 inactivation” value [4] was “complete virus inactivation”, the virus inactivation [4, 8] was “completely inactivated” and the virus inactivation [4, 9] was “completely inactivated”.
For `NC(=S)NN=C1C(=O)Nc2ccccc21` [isatin β-thiosemicarbazone], the “antigenicity (ELISA at 20 hrs post-inactivation)” value ([1]; CuCl2=1 μM, 150 mM NaPO4) was “superior antigenicity” and the “rate of inactivation (viable virus at 1 hr post-inactivation)” value ([4]; CuCl2=1 μM, 150 mM NaPO4) was “enhanced rates of inactivation”.
For `NNC(N)=O` [semicarbazide], the “antigenicity (ELISA at 20 hrs post-inactivation)” value ([1]; CuCl2=1 μM, 150 mM NaPO4) was “protection of protein antigens from oxidative damage” and the “rate of inactivation (viable virus at 1 hr post-inactivation)” value ([4]; CuCl2=1 μM, 150 mM NaPO4) was “do not appear to increase the rate of inactivation”.
In the case of `O=P1([O-])OP(=O)([O-])OP(=O)([O-])O1.[Na+].[Na+].[Na+]` [sodium trimetaphosphate], the “ELISA signal / antigenicity with added salt during H2O2/CuCl2 inactivation” value ([1]; room temperature) is reported as “increased ELISA signals” and the “virus inactivation with added salt during H2O2/CuCl2 inactivation” value [4] is reported as “completely inactivated”.
With `CCCN1C(=O)C(=NNC(N)=S)c2ccccc21` [N-propylisatin β-thiosemicarbazone] the “antigenicity (ELISA at 20 hrs post-inactivation)” value ([1]; CuCl2=1 μM, 150 mM NaPO4) was “superior antigenicity” and the “rate of inactivation (viable virus at 1 hr post-inactivation)” value ([4]; CuCl2=1 μM, 150 mM NaPO4) was “enhanced rates of inactivation”.
For `[Cl][Fe]([Cl])[Cl]` [FeCl3], the “antigenicity with increasing FeCl3 concentrations” value (dengue virus 3 (DENV3)) was “enhanced antigenicity”.
With `O=S(=O)([O-])[O-].[Mg+2]` [magnesium sulfate] the “ELISA signal / antigenicity with added salt during H2O2/CuCl2 inactivation” value ([1]; room temperature) was “improved antigenicity” and the “virus inactivation with added salt during H2O2/CuCl2 inactivation” value [4] was “complete virus inactivation”.
For `OO` [H2O2, hydrogen peroxide], the “antigenicity (in vitro potency testing using envelope-specific MAbs)” value ([2]; 3% H2O2 under standard conditions) was “nearly complete loss of antigenicity”, the “kinetics of virus inactivation versus total viral protein concentration” value (DENV2) was “protein concentration-independent” and the bacterial morphology [6] was “substantially damaged with clear changes in morphology”. For the same molecule, the “neutralizing epitopes (antigenicity)” value (yellow fever virus (YFV)) was “severe damage to neutralizing epitopes”.
